Source: patent US20240376108A1, “SALT AND CRYSTAL FORM OF PYRAZOLE-CONTAINING POLYCYCLIC DERIVATIVE, AND PREPARATION METHOD THEREFOR AND USE THEREOF” (Shanghai Hansoh Biomedical Co., Ltd., priority 2021, published 2024)
Values after ≈ are worked out from the molar mass of the structure shown.

Key:
Format in all cases: physicochemical
[1] = Screening of the salt form and of the crystal form of the salt; settings: 40 to 50° C., stirred overnight
Method: 2.1 Screening of the salt form of the compound
2.1.1 Experimental objective: To screen the salt form of the compound.
Salt forming by solventing out or suspension: 10 mg of compound 2-(2-cyano-5-oxo-8-(trifluoromethyl)pyrazolo[1,5-a]pyrido[3,2-e]pyrimidin-4(5H)-yl)-N-(5-fluoropyridin-2-yl)acetamide was weighed, to which 200 μL to 400 μL of solvent was added. The solution was stirred at 40 to 50° C., to which different acids were added respectively. The solution was stirred overnight, cooled to room temperature, filtered, and dried to obtain the salt of the compound.
3.1 Study on the crystal form of the salt of 2-(2-cyano-5-oxo-8-(trifluoromethyl)pyrazolo[1,5-a]pyrido[3,2-e]pyrimidin-4(5H)-yl)-N-(5-fluoropyridin-2-yl)acetamide
3.1.1 Experimental objective: To screen the salt of compound 2-(2-cyano-5-oxo-8-(trifluoromethyl)pyrazolo[1,5-a]pyrido[3,2-e]pyrimidin-4(5H)-yl)-N-(5-fluoropyridin-2-yl)acetamide that can form a crystal form.
2) Operating procedures: Salt forming by solventing out or suspension: 10 mg of the compound was weighed, to which 200 μL to 400 μL of solvent was added. The solution was stirred at 40 to 50° C., to which different acids were added respectively. The solution was stirred overnight, cooled to room temperature, filtered, and dried to obtain the salt of the compound.

[2] = Hygroscopicity experiment (DVS); settings: 25° C.
Source text: 7.1 Hygroscopicity experiment of crystal forms of different salts of compound 2-(2-cyano-5-oxo-8-(trifluoromethyl)pyrazolo[1,5-a]pyrido[3,2-e]pyrimidin-4(5H)-yl)-N-(5-fluoropyridin-2-yl)acetamide
7.1.1 Experimental objective: To investigate the hygroscopicity of crystal forms of different salts of compound 2-(2-cyano-5-oxo-8-(trifluoromethyl)pyrazolo[1,5-a]pyrido[3,2-e]pyrimidin-4(5H)-yl)-N-(5-fluoropyridin-2-yl)acetamide at different relative humidity, so as to provide a basis for storage.
7.1.2 Experimental protocol: Crystal forms of different salts of the compound were placed in saturated water vapor with different relative humidity to achieve dynamic equilibrium between the compound and water vapor, and the percentage of hygroscopic weight gain of the compound after equilibrium was calculated.

[3] = Solubility experiment in different media; settings: room temperature, 24 hours
Method: The vials were placed on a spin mixer overnight at room temperature. After 24 hours, the sample solution was filtered through a 0.45 μm mixed aqueous fiber membrane. The content of the compound in the filtrate was determined by HPLC. [table]

[4] = solvent Dichloromethane (400 μL)
[5] = solvent Tetrahydrofuran (200 μL)
[6] = Cycle 1, target relative humidity 0.0%
[7] = Cycle 1, target relative humidity 10.0%
[8] = Cycle 1, target relative humidity 20.0%
[9] = Cycle 1, target relative humidity 30.0%
[10] = Cycle 1, target relative humidity 40.0%
[11] = Cycle 1, target relative humidity 50.0%
[12] = Cycle 1, target relative humidity 60.0%
[13] = Cycle 1, target relative humidity 70.0%
[14] = Cycle 1, target relative humidity 80.0%
[15] = Cycle 1, target relative humidity 90.0%
[16] = Cycle 1, target relative humidity 95.0%
[17] = Cycle 2, target relative humidity 0.0%
[18] = Cycle 2, target relative humidity 10.0%
[19] = Cycle 2, target relative humidity 20.0%
[20] = Cycle 2, target relative humidity 30.0%
[21] = Cycle 2, target relative humidity 40.0%
[22] = Cycle 2, target relative humidity 50.0%
[23] = Cycle 2, target relative humidity 60.0%
[24] = Cycle 2, target relative humidity 70.0%
[25] = Cycle 2, target relative humidity 80.0%
[26] = Cycle 2, target relative humidity 90.0%
[27] = Cycle 2, target relative humidity 95.0%

## CCS(=O)(=O)O [Ethanesulfonic acid]
[1]; solvent 2-Butanone (250 μL)
  Results (salt forming with acid, 1M in EtOH): Crystal form
[1]; solvent Acetone (400 μL)
  Results (salt forming with acid, 1M in EtOH): Crystal form
[1]; [4]
  Results (salt forming with acid, 1M in EtOH): Crystal form
[1]; solvent Methanol (400 μL)
  Results (salt forming with acid, 1M in EtOH): Crystal form
[1]; [5]
  Results (salt forming with acid, 1M in EtOH): Crystal form

## Br [Hydrobromic acid]
[1]; solvent 2-Butanone (250 μL)
  Results (salt forming with acid, 1M in EtOH): Crystal form
[1]; solvent Acetone (400 μL)
  Results (salt forming with acid, 1M in EtOH): Crystal form
[1]; [4]
  Results (salt forming with acid, 1M in EtOH): Crystal form
[1]; solvent Methanol (400 μL)
  Results (salt forming with acid, 1M in EtOH): Crystal form
[1]; [5]
  Results (salt forming with acid, 1M in EtOH): Crystal form

## Cl [Hydrochloric acid]
[1]; solvent 2-Butanone (250 μL)
  Results (salt forming with acid, 1M in EtOH): Crystal form
[1]; solvent Acetone (400 μL)
  Results (salt forming with acid, 1M in EtOH): Crystal form
[1]; [4]
  Results (salt forming with acid, 1M in EtOH): Crystal form
[1]; solvent Methanol (400 μL)
  Results (salt forming with acid, 1M in EtOH): Crystal form
[1]; [5]
  Results (salt forming with acid, 1M in EtOH): Crystal form

## Cl.N#Cc1cc2n(CC(=O)Nc3ccc(F)cn3)c(=O)c3ccc(C(F)(F)F)nc3n2n1 [Hydrochloride (crystal form A), 2-(2-cyano-5-oxo-8-(trifluoromethyl)pyrazolo[1,5-a]pyrido[3,2-e]pyrimidin-4(5H)-yl)-N-(5-fluoropyridin-2-yl)acetamide hydrochloride]
[2]; [6]
  % percentage of mass change, Desorption: −0.041%
  % percentage of mass change, Sorption: 0.000%
[2]; [7]
  % percentage of mass change, Desorption: 0.130%
  % percentage of mass change, Sorption: 0.131%
[2]; [8]
  % percentage of mass change, Desorption: 0.313%
  % percentage of mass change, Sorption: 0.275%
[2]; [9]
  % percentage of mass change, Desorption: 7.258%
  % percentage of mass change, Sorption: 4.325%
[2]; [10]
  % percentage of mass change, Desorption: 7.532%
  % percentage of mass change, Sorption: 7.346%
[2]; [11]
  % percentage of mass change, Desorption: 7.722%
  % percentage of mass change, Sorption: 7.466%
[2]; [12]
  % percentage of mass change, Desorption: 7.825%
  % percentage of mass change, Sorption: 7.581%
[2]; [13]
  % percentage of mass change, Desorption: 7.898%
  % percentage of mass change, Sorption: 7.709%
[2]; [14]
  % percentage of mass change, Desorption: 7.968%
  % percentage of mass change, Sorption: 7.840%
[2]; [15]
  % percentage of mass change, Desorption: 8.071%
  % percentage of mass change, Sorption: 8.018%
[2]; [16]
  % percentage of mass change, Desorption: 8.141%
  % percentage of mass change, Sorption: 8.141%
[2]; [17]
  % percentage of mass change, Desorption: −0.062%
  % percentage of mass change, Sorption: −0.041%
[2]; [18]
  % percentage of mass change, Desorption: 0.098%
  % percentage of mass change, Sorption: 0.095%
[2]; [19]
  % percentage of mass change, Desorption: 0.273%
  % percentage of mass change, Sorption: 0.236%
[2]; [20]
  % percentage of mass change, Desorption: 7.191%
  % percentage of mass change, Sorption: 5.345%
[2]; [21]
  % percentage of mass change, Desorption: 7.462%
  % percentage of mass change, Sorption: 7.269%
[2]; [22]
  % percentage of mass change, Desorption: 7.649%
  % percentage of mass change, Sorption: 7.383%
[2]; [23]
  % percentage of mass change, Desorption: 7.738%
  % percentage of mass change, Sorption: 7.492%
[2]; [24]
  % percentage of mass change, Desorption: 7.806%
  % percentage of mass change, Sorption: 7.610%
[2]; [25]
  % percentage of mass change, Desorption: 7.872%
  % percentage of mass change, Sorption: 7.745%
[2]; [26]
  % percentage of mass change, Desorption: 7.972%
  % percentage of mass change, Sorption: 7.925%
[2]; [27]
  % percentage of mass change, Desorption: 8.047%
  % percentage of mass change, Sorption: 8.047%

## CS(=O)(=O)O [Methanesulfonic acid]
[1]; solvent 2-Butanone (250 μL)
  Results (salt forming with acid, 1M in EtOH): Crystal form
[1]; solvent Acetone (400 μL)
  Results (salt forming with acid, 1M in EtOH): Crystal form
[1]; [4]
  Results (salt forming with acid, 1M in EtOH): Crystal form
[1]; solvent Methanol (400 μL)
  Results (salt forming with acid, 1M in EtOH): Crystal form
[1]; [5]
  Results (salt forming with acid, 1M in EtOH): Crystal form

## O=S(=O)(O)O [Sulfuric acid]
[1]; solvent 2-Butanone (250 μL)
  Results (salt forming with acid, 1M in EtOH): Crystal form
[1]; solvent Acetone (400 μL)
  Results (salt forming with acid, 1M in EtOH): Crystal form
[1]; [4]
  Results (salt forming with acid, 1M in EtOH): Crystal form
[1]; solvent Methanol (400 μL)
  Results (salt forming with acid, 1M in EtOH): Crystal form
[1]; [5]
  Results (salt forming with acid, 1M in EtOH): Crystal form

## N#Cc1cc2n(CC(=O)Nc3ccc(F)cn3)c(=O)c3ccc(C(F)(F)F)nc3n2n1 [crystal form II of the free base, 2-(2-cyano-5-oxo-8-(trifluoromethyl)pyrazolo[1,5-a]pyrido[3,2-e]pyrimidin-4(5H)-yl)-N-(5-fluoropyridin-2-yl)acetamide free base]
[3]; FaSSGF
  Solubility: 0.7 µg/mL (≈ 1.62 µM)
[3]; FaSSIF
  Solubility: 1.1 µg/mL (≈ 2.55 µM)
[3]; FeSSIF
  Solubility: 2.5 µg/mL (≈ 5.8 µM)
[3]; H2O
  Solubility: 0.6 µg/mL (≈ 1.39 µM)
[3]; USP Buffer pH 1
  Solubility: 0.6 µg/mL (≈ 1.39 µM)
[3]; USP Buffer pH 2
  Solubility: 0.6 µg/mL (≈ 1.39 µM)
[3]; USP Buffer pH 3
  Solubility: 1.1 µg/mL (≈ 2.55 µM)
[3]; USP Buffer pH 4
  Solubility: 1 µg/mL (≈ 2.32 µM)
[3]; USP Buffer pH 5
  Solubility: 0.8 µg/mL (≈ 1.85 µM)
[3]; USP Buffer pH 6
  Solubility: 0.6 µg/mL (≈ 1.39 µM)
[3]; USP Buffer pH 7
  Solubility: 0.5 µg/mL (≈ 1.16 µM)
[3]; USP Buffer pH 8
  Solubility: 0.5 µg/mL (≈ 1.16 µM)
